Test results taken from patent US7223754B2, “Thiazolidinone, oxazolidinone, and imidazolone derivatives for treating lower urinary tract and related disorders” (Dynogen Pharmaceuticals, Inc., priority 2003, dated 2007).

Tests used:
[1] = test system: Female Sprague-Dawley rats; conditions: rat, in vivo
HVA calcium channels = assay type: cell-based, rat; conditions: n=4; 1 µM

ω-Conotoxin MVIIA
bladder capacity versus irritation control, Dunn's MCT [1]: significantly different than irritation control | directly measured bladder capacity, % of control values [1]: 69% | effects on other micturition parameters, such as voiding efficiency [1]: no untoward effects on other micturition parameters | intermicturition interval versus irritation control (AA/Veh 3), Dunn's multiple comparison test [1]: significantly different than irritation control | intermicturition interval, % of pre-irritation control values [1]: 81%

Omega-conotoxin GVIA
calcium current amplitudes, % of control amplitudes (HVA calcium channels): 72.8±1.6%
